Data reported in ChEMBL document CHEMBL5465560, “Selectivity Literature for EUbOPEN Chemogenomic Library” (2024).

Columns and labels:
Focal adhesion kinase 1 = Focal adhesion kinase 1 (Homo sapiens, UniProt Q05397); settings: at 10 µM
[1] = target: Progesterone receptor (Homo sapiens) (UniProt P06401); experiment: Selectivity interaction (Eurofins CEREP Diversity Profile (receptors and ion channels)) EUB0000279b PGR; settings: at 10 µM
[2] = target: T1, Serine/threonine-protein kinase BRSK2 (Homo sapiens) (UniProt Q8IWQ3); experiment: Selectivity interaction (Ambit KINOMEscan and KiNATiv profiling in Jurkat cells) EUB0000090b BRSK2; format: cell-based; settings: at 1 µM
T1 sequence (whole entry): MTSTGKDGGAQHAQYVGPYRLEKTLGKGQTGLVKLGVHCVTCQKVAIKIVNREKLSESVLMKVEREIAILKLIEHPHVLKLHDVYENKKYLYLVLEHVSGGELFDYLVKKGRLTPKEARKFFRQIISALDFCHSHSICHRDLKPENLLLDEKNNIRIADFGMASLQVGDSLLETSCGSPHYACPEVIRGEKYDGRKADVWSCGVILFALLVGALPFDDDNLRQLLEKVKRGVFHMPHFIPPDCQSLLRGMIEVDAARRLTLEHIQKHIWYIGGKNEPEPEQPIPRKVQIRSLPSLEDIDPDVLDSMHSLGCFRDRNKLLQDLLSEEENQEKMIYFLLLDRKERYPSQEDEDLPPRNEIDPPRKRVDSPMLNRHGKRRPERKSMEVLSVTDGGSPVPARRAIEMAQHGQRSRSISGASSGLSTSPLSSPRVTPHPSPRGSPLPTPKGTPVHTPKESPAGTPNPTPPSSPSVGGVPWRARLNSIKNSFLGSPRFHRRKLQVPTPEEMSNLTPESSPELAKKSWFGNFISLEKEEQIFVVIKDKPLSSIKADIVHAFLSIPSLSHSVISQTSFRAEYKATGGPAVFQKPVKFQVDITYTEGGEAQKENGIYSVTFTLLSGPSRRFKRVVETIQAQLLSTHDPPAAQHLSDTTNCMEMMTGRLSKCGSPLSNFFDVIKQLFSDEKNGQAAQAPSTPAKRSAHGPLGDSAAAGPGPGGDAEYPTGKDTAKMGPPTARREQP

[3] = target: T2, Dual specificity mitogen-activated protein kinase kinase 7 (Homo sapiens) (UniProt O14733); experiment: Selectivity interaction (KinomeScan (DiscoverX)) EUB0000618a MAP2K7; settings: at 10 µM
T2 sequence (whole entry): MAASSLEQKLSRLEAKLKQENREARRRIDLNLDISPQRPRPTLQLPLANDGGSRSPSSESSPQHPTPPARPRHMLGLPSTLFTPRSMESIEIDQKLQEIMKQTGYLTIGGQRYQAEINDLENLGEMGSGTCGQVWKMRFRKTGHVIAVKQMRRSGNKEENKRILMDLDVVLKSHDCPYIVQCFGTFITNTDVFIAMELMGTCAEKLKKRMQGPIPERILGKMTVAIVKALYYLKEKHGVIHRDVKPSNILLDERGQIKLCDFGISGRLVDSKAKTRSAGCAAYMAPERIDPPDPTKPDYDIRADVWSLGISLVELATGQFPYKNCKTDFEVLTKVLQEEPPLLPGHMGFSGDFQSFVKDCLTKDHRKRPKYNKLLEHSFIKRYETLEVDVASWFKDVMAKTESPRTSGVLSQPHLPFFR

[4] = target: Tyrosine-protein kinase JAK1 (Homo sapiens, UniProt P23458); experiment: Selectivity interaction (ActivX KiNativ screen (ex vivo kinase selectivity in human PBMCs)) EUB0001619a JAK1; format: cell-based; settings: PBMC, at 1 µM
[5] = target: Tyrosine-protein kinase Fes/Fps (Homo sapiens) (UniProt P07332); experiment: Selectivity interaction (Upstate Kinase Profiler service (Millipore)) EUB0000056c FES; settings: at 1 µM
Chain of Tyrosine-protein kinase Fes/Fps (Homo sapiens) (P07332 whole entry): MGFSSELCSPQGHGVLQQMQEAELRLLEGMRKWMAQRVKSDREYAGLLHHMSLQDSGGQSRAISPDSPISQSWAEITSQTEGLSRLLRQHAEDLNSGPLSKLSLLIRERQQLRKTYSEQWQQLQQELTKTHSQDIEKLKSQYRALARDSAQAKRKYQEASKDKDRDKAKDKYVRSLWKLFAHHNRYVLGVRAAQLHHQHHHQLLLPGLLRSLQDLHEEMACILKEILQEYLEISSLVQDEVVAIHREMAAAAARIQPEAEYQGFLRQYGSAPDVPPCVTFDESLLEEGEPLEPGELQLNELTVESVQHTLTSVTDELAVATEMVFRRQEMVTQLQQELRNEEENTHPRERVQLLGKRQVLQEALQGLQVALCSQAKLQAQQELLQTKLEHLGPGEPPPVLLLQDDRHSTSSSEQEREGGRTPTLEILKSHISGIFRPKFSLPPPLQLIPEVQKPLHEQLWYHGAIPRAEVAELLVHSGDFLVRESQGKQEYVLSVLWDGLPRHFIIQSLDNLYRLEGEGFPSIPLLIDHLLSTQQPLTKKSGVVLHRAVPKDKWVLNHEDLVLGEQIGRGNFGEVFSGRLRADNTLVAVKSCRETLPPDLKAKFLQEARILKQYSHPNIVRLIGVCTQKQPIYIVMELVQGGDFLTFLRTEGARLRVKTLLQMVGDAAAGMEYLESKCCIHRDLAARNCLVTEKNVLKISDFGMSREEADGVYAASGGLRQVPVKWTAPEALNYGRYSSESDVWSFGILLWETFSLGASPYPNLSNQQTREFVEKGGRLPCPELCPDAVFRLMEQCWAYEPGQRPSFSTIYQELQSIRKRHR

[6] = target: Cyclin-dependent kinase 6 (Homo sapiens) (UniProt Q00534); experiment: Selectivity interaction (Kinase panel (KiNativ target engagement assay in Jurkat cells)) EUB0001635a CDK6; format: cell-based; settings: Selectivity number of off-targets 0.0, Selectivity number of targets 233.0, Source Knowledge https://www.sciencedirect.com/science/article/pii/S2451945619300674?via%3Dihub, at 1 µM
[7] = target: T3, Eukaryotic elongation factor 2 kinase (Homo sapiens) (UniProt O00418); experiment: Selectivity interaction (Kinase panel (KiNativ target engagement assay in Jurkat cells)) EUB0001635a EEF2K; format: cell-based; settings: Selectivity number of off-targets 0.0, Selectivity number of targets 233.0, Source Knowledge https://www.sciencedirect.com/science/article/pii/S2451945619300674?via%3Dihub, at 1 µM
T3 sequence (whole entry): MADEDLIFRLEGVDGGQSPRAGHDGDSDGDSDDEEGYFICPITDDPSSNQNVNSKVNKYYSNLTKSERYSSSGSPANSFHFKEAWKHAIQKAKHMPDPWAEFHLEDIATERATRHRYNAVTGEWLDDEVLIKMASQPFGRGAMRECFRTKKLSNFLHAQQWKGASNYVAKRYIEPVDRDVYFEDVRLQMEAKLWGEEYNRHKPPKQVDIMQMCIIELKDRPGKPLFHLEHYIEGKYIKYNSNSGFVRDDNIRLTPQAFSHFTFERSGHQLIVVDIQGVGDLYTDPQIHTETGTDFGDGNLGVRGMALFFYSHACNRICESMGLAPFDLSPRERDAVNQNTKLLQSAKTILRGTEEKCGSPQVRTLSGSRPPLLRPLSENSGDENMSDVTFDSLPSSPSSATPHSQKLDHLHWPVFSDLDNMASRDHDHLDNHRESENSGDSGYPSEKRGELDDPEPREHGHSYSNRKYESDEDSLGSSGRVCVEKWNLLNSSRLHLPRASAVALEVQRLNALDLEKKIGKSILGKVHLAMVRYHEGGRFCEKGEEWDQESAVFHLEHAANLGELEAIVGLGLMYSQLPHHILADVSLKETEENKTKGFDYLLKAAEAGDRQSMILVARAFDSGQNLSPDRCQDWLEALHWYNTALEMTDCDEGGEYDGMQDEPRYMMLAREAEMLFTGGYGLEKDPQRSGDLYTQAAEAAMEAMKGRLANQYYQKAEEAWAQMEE

[8] = system: Tyrosine-protein kinase ABL1 (Homo sapiens), P00519 [F317L]; experiment: Selectivity interaction (KinomeScan (DiscoverX)) EUB0001049a ABL1; settings: at 1 µM
[9] = target: Proto-oncogene tyrosine-protein kinase ROS (Homo sapiens) (UniProt P08922); experiment: Selectivity interaction (Kinase screening (Nanosyn)) EUB0000604a ROS1
Chain of Proto-oncogene tyrosine-protein kinase ROS (Homo sapiens) (P08922 whole entry): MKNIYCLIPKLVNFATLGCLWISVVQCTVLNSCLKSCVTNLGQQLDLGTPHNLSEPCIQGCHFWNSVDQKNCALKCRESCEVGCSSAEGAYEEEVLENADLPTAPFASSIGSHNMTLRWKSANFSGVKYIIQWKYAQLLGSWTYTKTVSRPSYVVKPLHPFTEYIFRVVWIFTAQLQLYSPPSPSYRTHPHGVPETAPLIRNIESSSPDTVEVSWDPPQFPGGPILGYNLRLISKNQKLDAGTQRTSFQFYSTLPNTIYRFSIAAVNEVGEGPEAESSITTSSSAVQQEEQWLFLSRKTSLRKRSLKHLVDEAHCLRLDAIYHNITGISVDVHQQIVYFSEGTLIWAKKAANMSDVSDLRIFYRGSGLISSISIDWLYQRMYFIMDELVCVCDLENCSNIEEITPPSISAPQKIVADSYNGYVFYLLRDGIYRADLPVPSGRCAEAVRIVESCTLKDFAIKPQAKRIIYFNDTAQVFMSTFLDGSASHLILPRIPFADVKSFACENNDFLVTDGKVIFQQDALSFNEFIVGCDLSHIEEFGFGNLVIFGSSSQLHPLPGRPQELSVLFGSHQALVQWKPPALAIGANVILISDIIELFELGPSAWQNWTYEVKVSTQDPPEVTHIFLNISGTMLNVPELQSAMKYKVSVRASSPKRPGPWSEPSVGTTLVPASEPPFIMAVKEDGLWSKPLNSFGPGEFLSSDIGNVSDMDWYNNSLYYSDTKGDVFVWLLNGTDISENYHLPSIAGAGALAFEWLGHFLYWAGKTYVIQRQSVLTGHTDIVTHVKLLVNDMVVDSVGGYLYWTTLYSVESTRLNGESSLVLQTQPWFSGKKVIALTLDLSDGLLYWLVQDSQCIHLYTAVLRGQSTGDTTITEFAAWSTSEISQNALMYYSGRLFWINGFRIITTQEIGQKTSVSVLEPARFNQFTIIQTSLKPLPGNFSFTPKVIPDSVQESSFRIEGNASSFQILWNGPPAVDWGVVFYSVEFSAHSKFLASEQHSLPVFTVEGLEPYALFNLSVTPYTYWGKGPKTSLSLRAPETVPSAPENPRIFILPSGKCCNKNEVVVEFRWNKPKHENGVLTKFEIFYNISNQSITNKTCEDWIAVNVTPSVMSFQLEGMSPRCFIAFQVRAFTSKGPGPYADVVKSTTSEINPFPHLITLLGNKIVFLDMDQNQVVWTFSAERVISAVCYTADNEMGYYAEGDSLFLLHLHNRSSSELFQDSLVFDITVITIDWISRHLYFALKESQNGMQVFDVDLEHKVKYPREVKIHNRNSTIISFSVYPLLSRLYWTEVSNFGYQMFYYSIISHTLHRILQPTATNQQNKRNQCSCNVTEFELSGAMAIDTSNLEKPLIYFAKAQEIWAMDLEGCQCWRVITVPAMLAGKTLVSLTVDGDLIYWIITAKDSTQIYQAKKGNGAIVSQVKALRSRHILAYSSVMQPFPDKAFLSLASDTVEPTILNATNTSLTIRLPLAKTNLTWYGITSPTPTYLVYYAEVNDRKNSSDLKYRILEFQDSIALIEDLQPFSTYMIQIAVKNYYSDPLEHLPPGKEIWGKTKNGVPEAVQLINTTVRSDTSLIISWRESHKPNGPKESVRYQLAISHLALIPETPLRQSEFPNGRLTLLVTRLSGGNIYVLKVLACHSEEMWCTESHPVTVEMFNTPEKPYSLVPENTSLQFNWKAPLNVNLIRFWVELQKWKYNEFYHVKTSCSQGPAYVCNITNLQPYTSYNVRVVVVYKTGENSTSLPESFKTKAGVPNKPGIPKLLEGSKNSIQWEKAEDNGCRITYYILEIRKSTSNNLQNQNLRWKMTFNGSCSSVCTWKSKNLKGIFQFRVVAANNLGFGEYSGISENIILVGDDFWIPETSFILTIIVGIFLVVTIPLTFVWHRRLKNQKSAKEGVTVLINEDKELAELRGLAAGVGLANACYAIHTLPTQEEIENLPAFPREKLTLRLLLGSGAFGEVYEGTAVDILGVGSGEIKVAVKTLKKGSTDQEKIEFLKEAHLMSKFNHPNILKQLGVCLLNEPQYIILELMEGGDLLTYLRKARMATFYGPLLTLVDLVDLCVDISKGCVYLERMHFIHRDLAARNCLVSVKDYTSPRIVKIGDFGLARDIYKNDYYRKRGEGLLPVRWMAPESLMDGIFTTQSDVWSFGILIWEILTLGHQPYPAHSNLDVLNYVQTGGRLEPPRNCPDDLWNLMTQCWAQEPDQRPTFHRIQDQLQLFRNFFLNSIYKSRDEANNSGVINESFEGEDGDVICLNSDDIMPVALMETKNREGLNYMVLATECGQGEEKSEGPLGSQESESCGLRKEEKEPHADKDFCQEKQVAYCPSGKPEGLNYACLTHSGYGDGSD

Chain of Progesterone receptor (Homo sapiens) (P06401 whole entry): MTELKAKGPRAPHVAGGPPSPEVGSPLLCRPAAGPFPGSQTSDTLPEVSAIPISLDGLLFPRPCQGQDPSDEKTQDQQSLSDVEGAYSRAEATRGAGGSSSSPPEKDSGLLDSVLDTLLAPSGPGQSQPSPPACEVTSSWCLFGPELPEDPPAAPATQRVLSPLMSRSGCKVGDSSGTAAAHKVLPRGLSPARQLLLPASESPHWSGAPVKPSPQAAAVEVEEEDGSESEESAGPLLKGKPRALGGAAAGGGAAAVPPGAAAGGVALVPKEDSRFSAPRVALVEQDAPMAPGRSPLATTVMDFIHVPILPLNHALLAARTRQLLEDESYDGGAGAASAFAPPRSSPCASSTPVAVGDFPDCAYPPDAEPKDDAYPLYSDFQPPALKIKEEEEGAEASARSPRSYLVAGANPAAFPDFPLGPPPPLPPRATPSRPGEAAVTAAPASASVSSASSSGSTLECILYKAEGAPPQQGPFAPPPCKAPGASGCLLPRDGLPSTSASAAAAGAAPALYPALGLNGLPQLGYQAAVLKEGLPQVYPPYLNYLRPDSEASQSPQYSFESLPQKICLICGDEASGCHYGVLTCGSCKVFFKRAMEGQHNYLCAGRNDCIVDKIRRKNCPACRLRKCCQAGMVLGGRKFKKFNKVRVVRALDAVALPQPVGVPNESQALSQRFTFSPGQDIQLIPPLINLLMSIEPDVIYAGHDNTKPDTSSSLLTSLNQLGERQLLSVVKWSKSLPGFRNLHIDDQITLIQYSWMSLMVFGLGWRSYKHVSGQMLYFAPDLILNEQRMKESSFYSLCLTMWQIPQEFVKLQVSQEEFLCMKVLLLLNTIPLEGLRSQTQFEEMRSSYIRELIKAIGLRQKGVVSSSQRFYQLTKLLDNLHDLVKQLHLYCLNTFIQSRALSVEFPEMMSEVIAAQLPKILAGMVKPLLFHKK
Chain of Focal adhesion kinase 1 (Q05397 2-1052 limits assumed): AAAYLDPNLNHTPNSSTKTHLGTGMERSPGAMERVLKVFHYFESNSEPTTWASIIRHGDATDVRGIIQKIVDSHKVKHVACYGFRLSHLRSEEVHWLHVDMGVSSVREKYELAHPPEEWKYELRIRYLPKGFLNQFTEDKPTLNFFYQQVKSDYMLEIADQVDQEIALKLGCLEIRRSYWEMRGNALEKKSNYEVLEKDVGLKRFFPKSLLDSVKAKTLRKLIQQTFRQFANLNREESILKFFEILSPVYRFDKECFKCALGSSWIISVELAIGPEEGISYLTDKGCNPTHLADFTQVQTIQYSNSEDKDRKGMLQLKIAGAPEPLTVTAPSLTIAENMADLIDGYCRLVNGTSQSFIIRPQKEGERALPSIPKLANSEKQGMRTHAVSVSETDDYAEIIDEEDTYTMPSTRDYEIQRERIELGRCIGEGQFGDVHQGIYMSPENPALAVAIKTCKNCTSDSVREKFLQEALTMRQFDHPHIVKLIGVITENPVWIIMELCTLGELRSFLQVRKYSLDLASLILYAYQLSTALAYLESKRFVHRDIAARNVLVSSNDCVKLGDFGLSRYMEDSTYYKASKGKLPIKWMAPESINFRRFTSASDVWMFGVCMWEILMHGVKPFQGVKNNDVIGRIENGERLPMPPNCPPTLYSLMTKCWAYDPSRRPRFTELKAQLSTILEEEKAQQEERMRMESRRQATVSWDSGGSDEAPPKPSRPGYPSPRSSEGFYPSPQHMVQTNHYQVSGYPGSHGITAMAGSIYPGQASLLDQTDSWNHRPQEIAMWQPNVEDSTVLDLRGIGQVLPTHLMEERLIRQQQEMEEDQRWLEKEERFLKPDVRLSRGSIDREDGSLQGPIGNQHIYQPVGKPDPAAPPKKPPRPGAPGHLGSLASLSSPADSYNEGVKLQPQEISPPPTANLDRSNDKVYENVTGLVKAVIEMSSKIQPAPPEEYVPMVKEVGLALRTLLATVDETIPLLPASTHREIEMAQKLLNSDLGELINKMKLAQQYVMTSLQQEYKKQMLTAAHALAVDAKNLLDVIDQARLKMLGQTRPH

`CCN(CC)CCCCNc1ncc2cc(-c3cc(OC)cc(OC)c3)c(NC(=O)NC(C)(C)C)nc2n1` gave a % of control (Focal adhesion kinase 1) of 100%.

In the case of `CC(=O)c1cc(-c2ccccc2OCC2CC2)c2ncccn12`, the % of control [1] is reported as 81%.

With `CN(C)C/C=C/C(=O)Nc1ccc(C(=O)N2CCCC(Nc3ncc(Cl)c(-c4c[nH]c5ccccc45)n3)C2)cc1` (stereo not given) the % of control [2] was 100%.

Compound `O[C@H]1CC[C@H](Nc2ncc3nc(Nc4c(F)cc(F)cc4F)n([C@H]4CCOC4)c3n2)CC1` has a % of control [3] of 94%.

For `N#Cc1cccc(-c2c[nH]c3ncnc(N4CCOCC4)c23)c1`, the % of inhibition [4] was 19%.

Compound `Cc1ccc(-c2ccc3c(ccc4sc5c(c43)NC[C@@H](C)NC5=O)n2)cn1` has a % of inhibition [5] of -3%.

`C=CC(=O)Nc1ccc(C(=O)Nc2[nH]nc3c2CN(C(=O)N[C@H](CN(C)C)c2ccccc2)C3(C)C)cc1` gave a % of engagement [6] of -8.6% and a % of engagement [7] of -14.2%.

`COc1cc(Nc2nc(C)cc(-c3cnn4nc(OC)ccc34)n2)cc(C(F)(F)F)c1` gave a % of control [8] of 91%.

With `Cc1cnc(Nc2ccc(F)cc2Cl)nc1-c1c[nH]c(C(=O)N[C@H](CO)c2cccc(Cl)c2)c1` the % of inhibition [9] was 3%.
